Test results from the NIST ThermoML archive (doi:10.1021/je900614f).
± gives the expanded uncertainty stated by the source.

Details: Crystal; visual observation

Triple point temperature: 407 ± 1 K
SMILES: CCOc1ccc(NC(C)=O)cc1 [N-(4-ethoxyphenyl)ethanamide]
